Assay [1] deals with T1, human GPR40 (Homo sapiens, UniProt O14842).
For assay [2], the target named is T1, human GPR40. The experiment in a line: FDSS-based intracellular calcium assay (Human GRP40 in vitro assay). Format: cell-based. More on the design: 3xFLAG; expressed in transfected cells. The settings on record: cells expressing GPR40, intracellular Ca2+ response, FDSS reader; read-out: hGPR40 EC50. Summed up:
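GPR40-expressing cells, plated overnight in serum-free phenol red-free DMEM, loaded with Fluo-3 in HBSS with 1.7 mM probenecid for 30 min at 37° C. Compounds in DMSO, diluted in assay buffer, added as 3× solutions; intracellular Ca^2+ response read on FDSS.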
(In general: Calcium flux is commonly read through the fluorescence of an indicator in the cells.)

Where a name gives a salt, the structure may show the parent alone. Read-outs that look alike come from different tables or passages of the source.

T1 sequence (O14842 whole entry): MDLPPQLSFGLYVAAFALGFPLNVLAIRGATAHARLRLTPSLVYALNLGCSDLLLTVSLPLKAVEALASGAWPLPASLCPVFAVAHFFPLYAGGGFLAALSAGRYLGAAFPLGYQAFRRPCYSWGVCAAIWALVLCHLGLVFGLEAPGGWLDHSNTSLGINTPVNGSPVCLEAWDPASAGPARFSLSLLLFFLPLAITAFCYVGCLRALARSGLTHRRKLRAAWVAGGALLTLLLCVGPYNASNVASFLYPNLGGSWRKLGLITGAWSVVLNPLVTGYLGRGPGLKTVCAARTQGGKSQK

`CCOc1ccc(F)c(N2CCC(Oc3ccc(N4C[C@H](c5ccc(OC)nc5)C[C@@H]4CC(=O)O)cc3)CC2)c1` [Example 123, 2-((2R,4S)-1-(4-((1-(5-Ethoxy-2-fluorophenyl)piperidin-4-yl)oxy)phenyl)-4-(6-methoxypyridin-3-yl)pyrrolidin-2-yl)acetic acid, TFA]: the figures for the EC50 at human GPR40 [1] and on human GPR40 [2] were 51 nM and 270 nM, respectively.

For the molecule `COc1ccc(F)c(N2CCC(Oc3ccc(N4CC(F)(F)C[C@@H]4CC(=O)O)cc3)C(C)C2)c1` (single isomer, unassigned) [Example 53, Isomer 2, HCl], the EC50 at human GPR40 [1] and at human GPR40 [2] was 49 nM in each case.

Consider `COc1ccc(F)c(N2CCC(Oc3ccc(N4CCCC4CC(=O)O)cc3)CC2)c1` (single isomer, unassigned) [Example 48, Isomer 2, 2-(1-(4-((1-(2-Fluoro-5-methoxyphenyl)piperidin-4-yl)oxy)phenyl)pyrrolidin-2-yl)acetic acid], for which the EC50 on human GPR40 [1] stood at 2500 nM; on human GPR40 [2], 1400 nM.

Take `COc1ccc(C2CC2)c(N2CCC(Oc3ccc(N4C[C@H](OC)C[C@@H]4CC(=O)O)cc3)CC2)c1` [Example 59, 2-((2R,4R)-1-(4-(1-(2-Cyclopropyl-5-methoxyphenyl)piperidin-4-yloxy)phenyl)-4-methoxypyrrolidin-2-yl)acetic acid, TFA]: the results for the concentration for a half-maximal effect (EC50) at human GPR40 [1] and at human GPR40 [2] were 38 nM and 290 nM, respectively.

For the molecule `COc1ccc(F)c(N2CCC(Oc3ccc(N4CC(C(F)(F)F)C(C)C4CC(=O)O)cc3)CC2)c1` (single isomer, unassigned) [Example 26, Isomer 1, 2-((2,3-trans,3,4-trans)-1-(4-((1-(2-Fluoro-5-methoxyphenyl)piperidin-4-yl)oxy)phenyl)-3-methyl-4-(trifluoromethyl)pyrrolidin-2-yl)acetic acid, HCl], the results for the concentration for a half-maximal effect (EC50) on human GPR40 [1] and at human GPR40 [2] were 140 nM and 220 nM, respectively.

In the case of `COc1cc(N2CCC(Oc3ccc(N4C[C@H](OC)[C@@H](C)[C@@H]4CC(=O)O)cn3)C(C)C2)c(Cl)cn1` (stereo partly drawn) [Example 91, 2-((2S,3S,4R)-1-(6-(((3,4-trans)-1-(5-Chloro-2-methoxypyridin-4-yl)-3-methylpiperidin-4-yl)oxy)pyridin-3-yl)-4-methoxy-3-methylpyrrolidin-2-yl)acetic acid, HCl], the EC50 is 18 nM at human GPR40 [1] and 190 nM on human GPR40 [2].

On to `COc1cc(N2CCC(Oc3ccc(N4C[C@H](C(F)(F)F)C[C@@H]4CC(=O)O)c(F)c3)C(C)C2)c(Cl)cn1` (some centres unmarked) [Example 138], for which the EC50 on human GPR40 [1] was determined as 27 nM; on human GPR40 [2] it was 190 nM.

Turning to `COc1ccc(F)c(N2CCC(Oc3ccc(N4C[C@H](OC(C)C)C[C@@H]4CC(=O)O)cc3)C(C)C2)c1` (stereo partly drawn) [Example 38, 2-((2R,4R)-1-(4-(((3,4-trans)-1-(2-Fluoro-5-methoxyphenyl)-3-methylpiperidin-4-yl)oxy)phenyl)-4-isopropoxypyrrolidin-2-yl)acetic acid, TFA], the EC50 at human GPR40 [1] came to 73 nM; at human GPR40 [2], 69 nM.

As for `COc1ccc(F)c(N2CCC(Oc3ccc(N4C[C@H](OC)C[C@@H]4CC(=O)O)cc3)CC2)c1` [Example 4, 2-((2R,4R)-1-(4-((1-(2-Fluoro-5-methoxyphenyl)piperidin-4-yl)oxy)phenyl)-4-methoxypyrrolidin-2-yl)acetic acid, HCl], the results for the concentration giving a half-maximal response (EC50) on human GPR40 [1] and on human GPR40 [2] were 240 nM and 170 nM, respectively.

In the case of `COc1cc(N2CCC(Oc3ccc(N4C[C@H](C(F)(F)F)C[C@@H]4CC(=O)O)cn3)C(C)C2)c(Cl)cn1` (stereo partly drawn) [Example 133, 2-((2R,4R)-1-(6-(((3,4-trans)-1-(5-Chloro-2-methoxypyridin-4-yl)-3-methylpiperidin-4-yl)oxy)pyridin-3-yl)-4-(trifluoromethyl)pyrrolidin-2-yl)acetic acid], the EC50 at human GPR40 [1] turned out to be 49 nM; at human GPR40 [2] it was 380 nM.

For `COc1ccc(F)c(N2CCC(Oc3ccc(N4C[C@H](C(F)(F)F)C[C@@H]4CC(=O)O)cc3)CC2)c1` [Example 1, 2-((2R,4R)-1-(4-((1-(2-Fluoro-5-methoxyphenyl)piperidin-4-yl)oxy)phenyl)-4-(trifluoromethyl)pyrrolidin-2-yl)acetic acid, HCl], the half-maximal effective concentration (EC50) at human GPR40 [1] amounted to 310 nM; on human GPR40 [2], 210 nM.

As to `CCOc1ccc(F)c(N2CCC(Oc3ccc(N4C[C@H](Cc5cccc(OC)c5)C[C@@H]4CC(=O)O)cc3)CC2)c1` [Example 124, 2-((2R,4R)-1-(4-((1-(5-Ethoxy-2-fluorophenyl)piperidin-4-yl)oxy)phenyl)-4-(3-methoxybenzyl)pyrrolidin-2-yl)acetic acid, TFA], the results for the EC50 at human GPR40 [1] and on human GPR40 [2] were 47 nM and 380 nM, respectively.

With `COc1cc(N2CCC(Oc3ccc(N4C[C@H](O)[C@@H](C)[C@@H]4CC(=O)O)c(F)c3)C(C)C2)c(Cl)cn1` (stereo partly drawn) [Example 115, 2-((2S,3S,4R)-1-(4-(((3,4-trans)-1-(5-Chloro-2-methoxypyridin-4-yl)-3-methylpiperidin-4-yl)oxy)-2-fluorophenyl)-4-hydroxy-3-methylpyrrolidin-2-yl)acetic acid], the EC50 on human GPR40 [1] was 1600 nM; at human GPR40 [2], 1620 nM.

In the case of `COc1cc(N2CCC(Oc3ccc(N4C[C@H](OC)C[C@@H]4CC(=O)O)cc3)CC2)c(F)cn1` [Example 96, 2-((2R,4R)-1-(4-((1-(5-Fluoro-2-methoxypyridin-4-yl)piperidin-4-yl)oxy)phenyl)-4-methoxypyrrolidin-2-yl)acetic acid, diethylammonium salt], the EC50 on human GPR40 [1] was determined as 520 nM; on human GPR40 [2], 840 nM.

With `COc1cc(N2CCC(Cc3ccc(N4C[C@H](OC)C[C@@H]4CC(=O)O)cc3)CC2)c(Cl)cn1` [Example 102, 2-((2R,4R)-1-(4-((1-(5-Chloro-2-methoxypyridin-4-yl)piperidin-4-yl)methyl)phenyl)-4-methoxypyrrolidin-2-yl)acetic acid], the EC50 at human GPR40 [1] turned out to be 950 nM; on human GPR40 [2] it was 952 nM.

`CCOc1ccc(F)c(N2CCC(Oc3ccc(N4C[C@H](C(F)(F)F)C[C@@H]4CC(=O)O)cc3)C(CC(C)C)C2)c1` (single isomer, unassigned) [Example 35, Isomer 2, HCl]: the half-maximal effective concentration (EC50) on human GPR40 [1] was 17 nM; on human GPR40 [2], 330 nM.

`CCOc1ccc(F)c(N2CCC(Oc3ccc(N4C[C@H](OC)[C@@H](C)[C@@H]4CC(=O)O)cn3)C(C)C2)c1` (stereo partly drawn) [Example 117, 2-((2S,3S,4R)-1-(6-(((3,4-trans)-1-(5-Ethoxy-2-fluorophenyl)-3-methylpiperidin-4-yl)oxy)pyridin-3-yl)-4-methoxy-3-methylpyrrolidin-2-yl)acetic acid, HCl]: the EC50 at human GPR40 [1] is 14 nM; at human GPR40 [2] it was 140 nM.

Turning to `COc1ccc(C2CCCC2)c(N2CCC(Oc3ccc(N4C[C@H](OC)C[C@@H]4CC(=O)O)cc3)CC2)c1` [Example 61, 2-((2R,4R)-1-(4-(1-(2-Cyclopentyl-5-methoxyphenyl)piperidin-4-yloxy)phenyl)-4-methoxypyrrolidin-2-yl)acetic acid], the values for the EC50 at human GPR40 [1] and on human GPR40 [2] were 16 nM and 120 nM, respectively.

Consider `COc1cc(N2CCC(Oc3ccc(N4C[C@H](OC)[C@@H](C)[C@@H]4CC(=O)O)cc3F)C(C)C2)c(Cl)cn1` (stereo partly drawn) [Example 98, 2-((2S,3S,4R)-1-(4-(((3,4-trans)-1-(5-Chloro-2-methoxypyridin-4-yl)-3-methylpiperidin-4-yl)oxy)-3-fluorophenyl)-4-methoxy-3-methylpyrrolidin-2-yl)acetic acid], for which the EC50 is 100 nM at human GPR40 [1] and 102 nM on human GPR40 [2].

By EC50 is commonly meant the midpoint of the concentration-response curve.
